In patent US12012391B1, “9-(2-hydroxyquinoline-3-yl)-10-[3-(dimethylamino)propyl]-3,4,6,7,9,10-hexahydroacridine-1,8(2H,5H)-dione as an antimicrobial compound” (KING FAISAL UNIVERSITY, priority 2023, dated 2024):

Experiments:
Details in all cases: after 10, 20, 40 and 60 minutes at all dilutions 1:100 to 1:800
[1] = tested on: St. aereus; assay: Antimicrobial activity by agar dilution, St. aereus; assay type: cell-based, Staphylococcus aureus
Description: (§1) The antimicrobial properties of the synthesized compound 9-(2-hydroxyquinoline-3-yl)-10-[3-(dimethylamino)propyl]-3,4,6,7,9,10-hexahydroacridine-1,8(2H,5H)-dione were studied by the method of agar dilution. Test solutions of each compound were prepared in a concentration of 1% using dimethylformamide as a solvent. Then they were diluted in a physiological solution to obtain the final experimental dilutions 1:100, 1:200, 1:400, and 1:800. The effect of these substances were compared with furacillin in a controllable study. The testing microbes used were gram positive bacteria St. aereus, gram negative bacteria E. Coli and Ps. aeruginosa, and Candida albicans fungi. The experiments used for this survey were meat-pentonlu agar (EPA) for cultivation of bacteria and Saburo environment for fungi. Each experiment used 1 ml of test solution on each plate 500 min. Add 2 drops of emulsified with microbes feel. All experimental samples were taken from the agar after 10, 20, 40, 60 minutes in the environment on the basis of Patrk planted. Bacteria were cultivated at a temperature of 37° C. for 1 day and the mushroom was kept in a thermostat for […] at a temperature of 28° C. Then the results were checked.

[2] = tested on: E. Coli; assay: Antimicrobial activity by agar dilution, E. Coli; assay type: cell-based, Escherichia coli
Description: as §1

[3] = tested on: Ps. aeruginosa; assay: Antimicrobial activity by agar dilution, Ps. aeruginosa; assay type: cell-based, Pseudomonas aeruginosa
Description: as §1

[4] = tested on: Candida albicans; assay: Antimicrobial activity by agar dilution, Candida albicans; assay type: cell-based
Description: as §1

Measured: inhibition activity

CN(C)CCCN1C2=C(C(=O)CCC2)C(c2cc3ccccc3nc2O)C2=C1CCCC2=O [9-(2-hydroxyquinoline-3-yl)-10-[3-(dimethylamino)propyl]-3,4,6,7,9,10-hexahydroacridine-1,8(2H,5H)-dione]
highest inhibition activity: all assays above
